Measured values taken from US9757324B2, “Emu oil in combination with other active ingredients for treating skin imperfections” (priority 2011, dated 2017).

Assay: Histological examination of skin after topical application
Format: in vivo, volunteers
Description: A study conducted with Emu Oil and doxycycline was undertaken in volunteers with mild to moderate acne. Sixteen volunteers participated who had mild to moderate acne, and one had severe cystic acne. Within 48 hours of application of the combination, the acne had disappeared. Only the volunteer with severe cystic acne had to apply the combination for five days for the acne to resolve. The efficacy was 100%. […] There are no tropical formulations of doxycycline to compare with. On histological examination, doxycycline was found in the dermis within 15 minutes of topical application.

time after which doxycycline was found in the dermis: ≤ 15 min
SMILES: C[C@H]1c2cccc(O)c2C(=O)C2=C(O)[C@]3(O)C(=O)C(C(N)=O)=C(O)[C@@H](N(C)C)[C@@H]3[C@@H](O)[C@@H]21 [doxycycline]
